Patent US10913738B2 (BRISTOL-MYERS SQUIBB COMPANY, priority 2017, dated 2021)
pIC50: −log10 of the molar value. Like-named read-outs stand apart in the source and are kept apart here.

Tests used:
IL-6 = assay: TNF-Induced SIRS, serum cytokines (IL-6, KC) by ELISA; format: in vivo; conditions: mouse, relative to 6 mg/kg Nec-1s, read-out: % protection from IL6 increase; for inhibition in vivo at 1 mg/kg: 1.0 mg/kg oral gavage 2 h before mTNF; for inhibition in vivo at 0.4 mg/kg: 0.4 mg/kg oral gavage 2 h before mTNF
Procedure: (§1) TNF-Induced Systemic Inflammatory Response Syndrome (SIRS)
(§2) RIPK1 inhibitors were evaluated for efficacy in vivo using a TNF-dependent model of systemic “shock”, also known as systemic inflammatory response syndrome (SIRS) (Duprez et al. 2011, Immunity 35(6):908-918). Intravenous injection of murine TNF induces a systemic inflammatory response characterized by a decrease in body temperature and an increase in circulating cytokines (IL-6, KC) in the serum. The addition of zVAD-fmk strongly sensitizes mice to TNF-induced shock through the inhibition of caspases (Cauwels et al., 2003). The combination of pretreatment with zVAD-fmk prior to injection of mTNF forms the basis of the RIPK1-dependent, TNF-induced, inflammatory response in this model.
(§3) Female C57/Bl6 mice (9 to 11 weeks old) were obtained from Jackson Labs (Bar Harbor, Me.). Mice were housed in BMS' animal facility with ad libitum access to food and water. Mice were and allowed to acclimate for at least 2 weeks and typically weighed at least 21 grams before being used in any studies. Group size was 6 mice per treatment. All experiments were conducted with the approval of BMS' Institutional Animal Care and Use Committee (IACUC)
(§4) Program compounds were dosed by oral gavage 2 h before IV challenge with 20 μg of murine TNF (#CRT192C, Cell Sciences, Canton, Mass.). zVAD-fmk (16.7 mg/kg) was given IV, 15 min before mTNF injection. The RIPK1 kinase inhibitor, necrostatin-1s (Nec-1s) was used as a positive control and was dosed at 6 mg/kg, IV, 30 minutes before mTNF challenge. mTNF was diluted in endotoxin-free PBS and 20 μg/mouse was injected in a volume of 0.1 ml into the retro-orbital sinus. All IV injections were done via the retro-orbital sinus and injection sites were alternated (left and right sides).
(§5) Blood samples for PK determination were collected into heparinized microtainer blood tubes (Part #365965, Becton Dickinson, Franklin Lakes N.J.) and mixed well. Dried blood spots (DBS) were prepared by pipetting 10 μl of whole blood, in duplicate, onto bioanalysis cards (#GR2261004, Perkin Elmer, Greenville, S.C.). A serum sample was obtained by collecting blood into a separator tube (#450472, Greiner Bio-One, Austria) and centrifuged (10 min at 10,000 RPM) to separate the serum. All blood samples were obtained from the retro-orbital sinus while under isoflurane anesthesia.
Serum cytokines were evaluated by ELISA assay. IL-6 was measured using OPTeia Kit (Becton Dickinson, Franklin Lakes N.J.) while KC was measured using an R&D Duoset kit (R&D Systems Inc. Minneapolis, Minn.)
(§6) Using these assays, the percent protection of body temperature and percent reduction in IL6 cytokine of the following compounds were determined. See Table B. % Protection is relative to a 6 mg/kg dose of Nec-1s (5-((7-Cl-1H-indol-3-yl)methyl)-3-methylimidazolidine-2,4-dione)).

[1] = tested on: Female C57/Bl6 mice, mTNF + zVAD-fmk induced hypothermia; assay: TNF-Induced Systemic Inflammatory Response Syndrome (SIRS), body temperature; format: in vivo; conditions: mouse, 3 h after mTNF, relative to 6 mg/kg Nec-1s, read-out: % protection from body temp loss; for inhibition in vivo at 1 mg/kg: 1.0 mg/kg oral gavage 2 h before mTNF; for inhibition in vivo at 0.4 mg/kg: 0.4 mg/kg oral gavage 2 h before mTNF
Procedure: as §1, §2, §3, §4
Three (3) hours after mTNF injection, mice were assessed for hypothermia and mortality. Rectal body temperature was recorded with an electric thermometer (Acorn Series Model JKT with a Ret-3 probe, Oakton Instruments Vernon Hills Ill. 60061).
as §6

[2] = Exposure in TNF-induced SIRS study (blood samples for PK determination); format: in vivo; conditions: mouse
Procedure: as §4, §5

[3] = tested on: MLKL phosphorylation in HT29-L23 human colorectal adenocarcinoma cells; assay: MLKL Phosphorylation High-Content Assay; format: cell-based; conditions: Homo sapiens
Outline: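 IC50 and Ymax obtained by 4-parameter logistic fitting of MLKL phosphorylation, measured as mean circ-ring average intensity ratio from high-content images. Staining used an anti-phospho-S358 MLKL antibody overnight at 4° C., following six-hour cell incubation at 37° C.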

[4] = target: T1, His-GST-TVMV-hRIPK1(1-324) (Homo sapiens, UniProt Q13546); assay: RIPK1 HTRF Binding Assay
T1 construct: The coding region of human RIPK1(1-324) flanked by NdeI site at 5′ end; made in house; host or cells: Spodoptera frugiperda (Sf9) insect cells, baculovirus
T1 sequence (Q13546 1-324): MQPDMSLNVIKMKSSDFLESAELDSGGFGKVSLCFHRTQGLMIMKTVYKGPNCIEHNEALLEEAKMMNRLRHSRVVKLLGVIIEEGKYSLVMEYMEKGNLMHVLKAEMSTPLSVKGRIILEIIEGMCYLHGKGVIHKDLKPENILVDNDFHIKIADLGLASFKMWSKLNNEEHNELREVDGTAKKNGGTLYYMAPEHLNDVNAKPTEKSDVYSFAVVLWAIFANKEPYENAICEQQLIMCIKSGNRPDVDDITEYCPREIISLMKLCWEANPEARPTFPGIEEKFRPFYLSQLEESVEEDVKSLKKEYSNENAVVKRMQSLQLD

[5] = x marks IC50 class 20-200 nM, read-out: pMLKL cell activity 20-200 nM
[6] = x marks IC50 class <20 nM, read-out: RIPK1 HTRF binding <20 nM
[7] = x marks IC50 class <20 nM, read-out: pMLKL cell activity <20 nM
[8] = x marks IC50 class 20-200 nM, read-out: RIPK1 HTRF binding 20-200 nM
[9] = 0.1 mg/kg oral gavage 2 h before mTNF

| SMILES | pIC50 [3, 5] | pIC50 [4, 6] | pIC50 [3, 7] | further results |
| --- | --- | --- | --- | --- |
| Cc1ncc(-c2ccn3nc(N)nc3c2)cc1C(=O)NC(C)c1cccc(OC(F)(F)F)c1 (stereo not shown) [Example 251, 5-{2-amino-[1,2,4]triazolo[1,5-a]pyridin-7-yl}-2-methyl-N-{1-[3-(trifluoromethoxy)phenyl]ethyl}pyridine-3-carboxamide] | 6.70 to 7.70 | – | – | inhibition in vivo at 1 mg/kg (IL-6): 97%; inhibition in vivo at 1 mg/kg [1]: 86%; Exposure ([2]; 1.0 mg/kg oral gavage): 1208 nM |
| COc1ncc(-c2ccn3nc(N)nc3c2)cc1C(=O)NCc1cc(F)cc(F)c1OCC1CC1 [Example 131, 5-{2-amino-[1,2,4]triazolo[1,5-a]pyridin-7-yl}-N-{[2-(cyclopropylmethoxy)-3,5-difluorophenyl]methyl}-2-methoxypyridine-3-carboxamide] | – | > 7.70 | > 7.70 | inhibition in vivo at 0.4 mg/kg (IL-6): 8%; inhibition in vivo at 0.4 mg/kg [1]: 15%; Exposure ([2]; 0.4 mg/kg oral gavage): 50 nM |
| COc1ncc(-c2ccn3nc(N)nc3c2)cc1C(=O)NCc1cccc(OC(F)(F)F)c1 [Example 58, 5-{2-Amino-[1,2,4]triazolo[1,5-a]pyridin-7-yl}-2-methoxy-N-{[3-(trifluoromethoxy)phenyl]methyl}pyridine-3-carboxamide] | 6.70 to 7.70 | > 7.70 | – | inhibition in vivo at 0.4 mg/kg (IL-6): 78%; inhibition in vivo at 0.4 mg/kg [1]: 113%; Exposure ([2]; 0.4 mg/kg oral gavage): 409 nM |
| COc1ncc(-c2ccn3nc(N)nc3c2)cc1C(=O)N1CCC[C@@H](Cc2ccc(F)cc2)C1 [Example 136, 7-{5-[(3S)-3-[(4-fluorophenyl)methyl]piperidine-1-carbonyl]-6-methoxypyridin-3-yl}-[1,2,4]triazolo[1,5-a]pyridin-2-amine] | – | > 7.70 | > 7.70 | inhibition in vivo at 0.4 mg/kg (IL-6): 80%; inhibition in vivo at 0.4 mg/kg [1]: 106%; Exposure ([2]; 0.4 mg/kg oral gavage): 364 nM |
| COc1ncc(-c2ccn3nc(N)nc3c2)cc1C(=O)NCCCc1ccccc1 [Example 102, 5-{2-amino-[1,2,4]triazolo[1,5-a]pyridin-7-yl}-2-methoxy-N-(4-phenylpropyl)pyridine-3-carboxamide] | 6.70 to 7.70 | – | – | inhibition in vivo at 1 mg/kg (IL-6): 82%; inhibition in vivo at 1 mg/kg [1]: 107%; Exposure ([2]; 1.0 mg/kg oral gavage): 1287 nM; pIC50 [4, 8]: 6.70 to 7.70 |
| COc1ncc(-c2ccn3nc(N)nc3c2)cc1C(=O)NC(C)c1ccccc1OC(F)(F)F (single isomer, unassigned) [Example 38-1, 5-{2-Amino-[1,2,4]triazolo[1,5-a]pyridin-7-yl}-2-methoxy-N-{1-[2-(trifluoromethoxy)phenyl]ethyl}pyridine-3-carboxamide] | – | > 7.70 | > 7.70 | inhibition in vivo at 0.1 mg/kg (IL-6; [9]): 93%; inhibition in vivo at 0.1 mg/kg [1, 9]: 80%; Exposure ([2]; 0.1 mg/kg oral gavage): 12 nM |
| COc1ncc(-c2ccn3nc(N)nc3c2)cc1C(=O)NCc1ccccc1OC(F)(F)F [Example 74, 5-{2-Amino-[1,2,4]triazolo[1,5-a]pyridin-7-yl}-2-methoxy-N-{[2-(trifluoromethoxy)phenyl]methyl}pyridine-3-carboxamide] | 6.70 to 7.70 | > 7.70 | – | inhibition in vivo at 0.4 mg/kg (IL-6): 87%; inhibition in vivo at 0.4 mg/kg [1]: 115%; Exposure ([2]; 0.4 mg/kg oral gavage): 117 nM |
| COc1ncc(-c2ccn3nc(N)nc3c2)cc1C(=O)NCc1ccccc1OCC1CCCC1 [Example 138, 5-{2-amino-[1,2,4]triazolo[1,5-a]pyridin-7-yl}-N-{[2-(cyclopentylmethoxy)phenyl]methyl}-2-methoxypyridine-3-carboxamide] | 6.70 to 7.70 | > 7.70 | – | – |
| COc1ncc(-c2ccn3nc(N)nc3c2)cc1C(=O)NCc1ccc(F)cc1OCC1CC1 [Example 145, 5-{2-amino-[1,2,4]triazolo[1,5-a]pyridin-7-yl}-N-{[2-(cyclopropylmethoxy)-4-fluorophenyl]mehtyl}-2-methoxypyridine-3-carboxaamide] | 6.70 to 7.70 | > 7.70 | – | – |
| COc1ccc(F)c(CNC(=O)c2cc(-c3ccn4nc(N)nc4c3)c(C)nc2OC)c1 [Example 337, 5-(2-amino-[1,2,4]triazolo[1,5-a]pyridin-7-yl)-N-(2-fluoro-5-methoxybenzyl)-2-methoxy-6-methylnicotinamide] | – | – | – | pIC50 [4, 8]: 6.70 to 7.70; pIC50 ([3]; x marks IC50 class >200 nM, read-out: pMLKL cell activity >200 nM): < 6.70 |
| [2H]C([2H])([2H])Oc1ncc(-c2ccn3nc(N)nc3c2)cc1C(=O)NCc1cc(C(F)(F)F)ccc1F [Example 91, 5-{2-amino-[1,2,4]triazolo[1,5-a]pyridin-7-yl}-N-{[2-fluoro-5-(trifluoromethyl)phenyl]methyl}-2-(deutero)methoxypyridine-3-carboxamide] | 6.70 to 7.70 | – | – | pIC50 [4, 8]: 6.70 to 7.70 |
| COc1nc(C)c(-c2ccn3nc(N)nc3c2)cc1C(=O)NCc1c(F)cccc1OCC(F)(F)F [Example 328, 5-(2-amino-[1,2,4]triazolo[1,5-a]pyridin-7-yl)-N-(2-fluoro-6-(2,2,2-trifluoroethoxy)benzyl)-2-methoxy-6-methylnicotinamide] | – | > 7.70 | > 7.70 | – |
| Cc1ncc(-c2ccn3nc(N)nc3c2)cc1C(=O)NCc1c(F)cccc1OCC(F)(F)F [Example 306, 5-(2-amino-[1,2,4]triazolo[1,5-a]pyridin-7-yl)-N-(2-fluoro-6-(2,2,2-trifluoroethoxy)benzyl)-2-methylnicotinamide] | 6.70 to 7.70 | – | – | pIC50 [4, 8]: 6.70 to 7.70 |
| COc1ncc(-c2ccn3nc(N)nc3c2)cc1C(=O)NCc1c(F)cccc1OC1CCCC1 [Example 52, 5-{2-Amino-[1,2,4]triazolo[1,5-a]pyridin-7-yl}-N-{[2-(cyclopentyloxy)-6-fluorophenyl]methyl}-2-methoxypyridine-3-carboxamide] | – | > 7.70 | > 7.70 | – |
| Nc1nc2cc(-c3cncc(C(=O)NCc4ccccc4OCC4CC4)c3)ccn2n1 [Example 42, 5-{2-Amino-[1,2,4]triazolo[1,5-a]pyridin-7-yl}-N-{[2-(cyclopropylmethoxy)phenyl]methyl}pyridine-3-carboxamide] | – | > 7.70 | > 7.70 | – |
| COc1nc(C)c(-c2ccn3nc(N)nc3c2)cc1C(=O)NCc1cccc(OC(F)(F)F)c1 [Example 210, 5-{2-amino-[1,2,4]triazolo[1,5-a]pyridin-7-yl}-2-methoxy-6-methyl-N-{[3-(trifluoromethoxy)phenyl]methyl}pyridine-3-carboxamide] | 6.70 to 7.70 | > 7.70 | – | – |
